Test results reported in article PMC9571063 (Molecules, 2022).

Tests used:
[1] = molecular target: T1, ABL1(E255K)-phosphorylated (Homo sapiens, UniProt P00519, E255K); assay: KINOMEscan; type: binding; conditions: read-out: Percent Control
T1 construct: purchased Eurofins DiscoverX KINOMEscan (scanMAX 468)

[2] = molecular target: T2, AXL (Homo sapiens, UniProt P30530); assay: KINOMEscan; type: binding; conditions: read-out: Percent Control
T2 construct: purchased Eurofins DiscoverX KINOMEscan (scanMAX 468)

[3] = molecular target: T3, CAMK2D (Homo sapiens, UniProt Q13557); assay: KINOMEscan; type: binding; conditions: read-out: Percent Control
T3 construct: purchased Eurofins DiscoverX KINOMEscan (scanMAX 468)

[4] = molecular target: T4, CAMKK1 (Homo sapiens, UniProt Q8N5S9); assay: KINOMEscan; type: binding; conditions: read-out: Percent Control
T4 construct: purchased Eurofins DiscoverX KINOMEscan (scanMAX 468)

[5] = molecular target: T5, CDK11 (Homo sapiens, UniProt Q9BWU1); assay: KINOMEscan; type: binding; conditions: read-out: Percent Control
T5 construct: purchased Eurofins DiscoverX KINOMEscan (scanMAX 468)

[6] = molecular target: T6, CDK4-cyclinD1 (Homo sapiens, UniProt P11802); assay: KINOMEscan; type: binding; conditions: read-out: Percent Control
T6 construct: purchased Eurofins DiscoverX KINOMEscan (scanMAX 468)

[7] = molecular target: T7, CSF1R (Homo sapiens, UniProt P07333); assay: KINOMEscan; type: binding; conditions: read-out: Percent Control
T7 construct: purchased Eurofins DiscoverX KINOMEscan (scanMAX 468)

[8] = molecular target: T8, CSNK1G2 (Homo sapiens, UniProt P78368); assay: KINOMEscan; type: binding; conditions: read-out: Percent Control
T8 construct: purchased Eurofins DiscoverX KINOMEscan (scanMAX 468)

[9] = molecular target: T9, DLK (Homo sapiens, UniProt Q12852); assay: KINOMEscan; type: binding; conditions: read-out: Percent Control
T9 construct: purchased Eurofins DiscoverX KINOMEscan (scanMAX 468)

[10] = molecular target: T10, EGFR (Homo sapiens, UniProt P00533); assay: KINOMEscan; type: binding; conditions: read-out: Percent Control
T10 construct: purchased Eurofins DiscoverX KINOMEscan (scanMAX 468)

[11] = molecular target: T11, ERK2 (Homo sapiens, UniProt P28482); assay: KINOMEscan; type: binding; conditions: read-out: Percent Control
T11 construct: purchased Eurofins DiscoverX KINOMEscan (scanMAX 468)

[12] = molecular target: T12, FGR (Homo sapiens, UniProt P09769); assay: KINOMEscan; type: binding; conditions: read-out: Percent Control
T12 construct: purchased Eurofins DiscoverX KINOMEscan (scanMAX 468)

[13] = molecular target: T13, FLT3 (Homo sapiens, UniProt P36888); assay: KINOMEscan; type: binding; conditions: read-out: Percent Control
T13 construct: purchased Eurofins DiscoverX KINOMEscan (scanMAX 468)

[14] = molecular target: T14, GAK (Homo sapiens, UniProt O14976); assay: KINOMEscan; type: binding; conditions: read-out: Percent Control
T14 construct: purchased Eurofins DiscoverX KINOMEscan (scanMAX 468)

[15] = molecular target: T15, GRK3 (Homo sapiens, UniProt P35626); assay: KINOMEscan; type: binding; conditions: read-out: Percent Control
T15 construct: purchased Eurofins DiscoverX KINOMEscan (scanMAX 468)

[16] = molecular target: T16, GSK3A (Homo sapiens, UniProt P49840); assay: KINOMEscan; type: binding; conditions: read-out: Percent Control
T16 construct: purchased Eurofins DiscoverX KINOMEscan (scanMAX 468)

[17] = molecular target: T17, IKK-beta (Homo sapiens, UniProt O14920); assay: KINOMEscan; type: binding; conditions: read-out: Percent Control
T17 construct: purchased Eurofins DiscoverX KINOMEscan (scanMAX 468)

[18] = molecular target: T18, KIT(D816V) (Homo sapiens, UniProt P10721, D816V); assay: KINOMEscan; type: binding; conditions: read-out: Percent Control
T18 construct: purchased Eurofins DiscoverX KINOMEscan (scanMAX 468)

[19] = molecular target: T19, KIT-autoinhibited (Homo sapiens, UniProt P10721); assay: KINOMEscan; type: binding; conditions: read-out: Percent Control
T19 construct: purchased Eurofins DiscoverX KINOMEscan (scanMAX 468)

[20] = molecular target: T20, MET (Homo sapiens, UniProt P08581); assay: KINOMEscan; type: binding; conditions: read-out: Percent Control
T20 construct: purchased Eurofins DiscoverX KINOMEscan (scanMAX 468)

[21] = molecular target: T21, NEK2 (Homo sapiens, UniProt P51955); assay: KINOMEscan; type: binding; conditions: read-out: Percent Control
T21 construct: purchased Eurofins DiscoverX KINOMEscan (scanMAX 468)

[22] = molecular target: T22, p38-beta (Homo sapiens, UniProt Q15759); assay: KINOMEscan; type: binding; conditions: read-out: Percent Control
T22 construct: purchased Eurofins DiscoverX KINOMEscan (scanMAX 468)

[23] = molecular target: T23, PAK3 (Homo sapiens, UniProt O75914); assay: KINOMEscan; type: binding; conditions: read-out: Percent Control
T23 construct: purchased Eurofins DiscoverX KINOMEscan (scanMAX 468)

[24] = molecular target: T24, PAK7 (Homo sapiens, UniProt Q9P286); assay: KINOMEscan; type: binding; conditions: read-out: Percent Control
T24 construct: purchased Eurofins DiscoverX KINOMEscan (scanMAX 468)

[25] = molecular target: T25, PDGFRB (Homo sapiens, UniProt P09619); assay: KINOMEscan; type: binding; conditions: read-out: Percent Control
T25 construct: purchased Eurofins DiscoverX KINOMEscan (scanMAX 468)

[26] = molecular target: T26, PFTK1 (Homo sapiens, UniProt O94921); assay: KINOMEscan; type: binding; conditions: read-out: Percent Control
T26 construct: purchased Eurofins DiscoverX KINOMEscan (scanMAX 468)

[27] = molecular target: T27, PIK3CA(C420R) (Homo sapiens, UniProt P42336, C420R); assay: KINOMEscan; type: binding; conditions: read-out: Percent Control
T27 construct: purchased Eurofins DiscoverX KINOMEscan (scanMAX 468)

[28] = molecular target: T28, PIK3CA(H1047Y) (Homo sapiens, UniProt P42336, H1047Y); assay: KINOMEscan; type: binding; conditions: read-out: Percent Control
T28 construct: purchased Eurofins DiscoverX KINOMEscan (scanMAX 468)

[29] = molecular target: T29, PIK3CA(M1043I) (Homo sapiens, UniProt P42336, M1043I); assay: KINOMEscan; type: binding; conditions: read-out: Percent Control
T29 construct: purchased Eurofins DiscoverX KINOMEscan (scanMAX 468)

[30] = molecular target: T30, PKAC-alpha (Homo sapiens, UniProt P17612); assay: KINOMEscan; type: binding; conditions: read-out: Percent Control
T30 construct: purchased Eurofins DiscoverX KINOMEscan (scanMAX 468)

[31] = molecular target: T31, PKN1 (Homo sapiens, UniProt Q16512); assay: KINOMEscan; type: binding; conditions: read-out: Percent Control
T31 construct: purchased Eurofins DiscoverX KINOMEscan (scanMAX 468)

[32] = molecular target: T32, PKNB(M.tuberculosis) (Mycobacterium tuberculosis, UniProt P9WI81); assay: KINOMEscan; type: binding; conditions: read-out: Percent Control
T32 construct: purchased Eurofins DiscoverX KINOMEscan (scanMAX 468)

[33] = molecular target: T33, RIPK2 (Homo sapiens, UniProt O43353); assay: KINOMEscan; type: binding; conditions: read-out: Percent Control
T33 construct: purchased Eurofins DiscoverX KINOMEscan (scanMAX 468)

[34] = molecular target: T34, RSK1(Kin.Dom.2-C-terminal) (Homo sapiens, UniProt Q15418); assay: KINOMEscan; type: binding; conditions: read-out: Percent Control
T34 construct: RSK1(Kin.Dom.2-C-terminal); purchased Eurofins DiscoverX KINOMEscan (scanMAX 468)

[35] = molecular target: T35, SBK1 (Homo sapiens, UniProt Q52WX2); assay: KINOMEscan; type: binding; conditions: read-out: Percent Control
T35 construct: purchased Eurofins DiscoverX KINOMEscan (scanMAX 468)

[36] = molecular target: T36, SRPK2 (Homo sapiens, UniProt P78362); assay: KINOMEscan; type: binding; conditions: read-out: Percent Control
T36 construct: purchased Eurofins DiscoverX KINOMEscan (scanMAX 468)

[37] = molecular target: T37, STK35 (Homo sapiens, UniProt Q8TDR2); assay: KINOMEscan; type: binding; conditions: read-out: Percent Control
T37 construct: purchased Eurofins DiscoverX KINOMEscan (scanMAX 468)

[38] = molecular target: T38, TIE2 (Homo sapiens, UniProt Q02763); assay: KINOMEscan; type: binding; conditions: read-out: Percent Control
T38 construct: purchased Eurofins DiscoverX KINOMEscan (scanMAX 468)

[39] = molecular target: T39, VEGFR2 (Homo sapiens, UniProt P35968); assay: KINOMEscan; type: binding; conditions: read-out: Percent Control
T39 construct: purchased Eurofins DiscoverX KINOMEscan (scanMAX 468)

[40] = molecular target: T40, VPS34 (Homo sapiens, UniProt Q8NEB9); assay: KINOMEscan; type: binding; conditions: read-out: Percent Control
T40 construct: purchased Eurofins DiscoverX KINOMEscan (scanMAX 468)

[41] = molecular target: T41, VRK2 (Homo sapiens, UniProt Q86Y07); assay: KINOMEscan; type: binding; conditions: read-out: Percent Control
T41 construct: purchased Eurofins DiscoverX KINOMEscan (scanMAX 468)

[42] = system: MCF7; parameters: method as in ref 14 (a number printed in a supplementary file, which may have a reference list of its own: not looked up in the article's list); conditions: DB18[a], footnote not given; read-out: Cytotoxic studies IC50 MCF7; cited from earlier work

T18 sequence (P10721 26-976 D816V): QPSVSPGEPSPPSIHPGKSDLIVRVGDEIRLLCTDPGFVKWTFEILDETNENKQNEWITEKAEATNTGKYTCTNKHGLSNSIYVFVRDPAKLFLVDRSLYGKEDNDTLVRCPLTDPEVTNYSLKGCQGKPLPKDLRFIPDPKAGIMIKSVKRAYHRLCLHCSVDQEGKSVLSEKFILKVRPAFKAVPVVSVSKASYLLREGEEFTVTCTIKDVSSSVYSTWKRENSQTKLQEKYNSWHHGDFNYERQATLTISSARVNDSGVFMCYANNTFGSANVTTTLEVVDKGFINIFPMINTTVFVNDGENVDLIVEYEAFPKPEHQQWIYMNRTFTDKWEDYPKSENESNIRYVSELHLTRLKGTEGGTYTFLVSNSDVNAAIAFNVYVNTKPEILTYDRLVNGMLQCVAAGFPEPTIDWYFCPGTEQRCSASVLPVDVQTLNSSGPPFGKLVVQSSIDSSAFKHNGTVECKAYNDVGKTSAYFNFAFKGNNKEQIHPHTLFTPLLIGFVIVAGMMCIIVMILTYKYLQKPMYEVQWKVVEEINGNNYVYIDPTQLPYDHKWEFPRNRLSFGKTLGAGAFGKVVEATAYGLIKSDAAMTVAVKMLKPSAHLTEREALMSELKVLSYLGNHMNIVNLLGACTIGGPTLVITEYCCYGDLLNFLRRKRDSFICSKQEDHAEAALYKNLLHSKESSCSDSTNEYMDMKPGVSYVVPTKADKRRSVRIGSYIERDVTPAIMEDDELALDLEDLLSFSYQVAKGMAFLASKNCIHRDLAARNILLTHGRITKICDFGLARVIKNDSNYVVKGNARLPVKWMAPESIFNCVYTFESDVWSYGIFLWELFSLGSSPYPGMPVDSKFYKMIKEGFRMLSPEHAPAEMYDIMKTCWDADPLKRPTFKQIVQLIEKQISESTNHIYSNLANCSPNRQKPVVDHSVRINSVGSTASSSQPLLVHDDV
T16 sequence (P49840 whole entry): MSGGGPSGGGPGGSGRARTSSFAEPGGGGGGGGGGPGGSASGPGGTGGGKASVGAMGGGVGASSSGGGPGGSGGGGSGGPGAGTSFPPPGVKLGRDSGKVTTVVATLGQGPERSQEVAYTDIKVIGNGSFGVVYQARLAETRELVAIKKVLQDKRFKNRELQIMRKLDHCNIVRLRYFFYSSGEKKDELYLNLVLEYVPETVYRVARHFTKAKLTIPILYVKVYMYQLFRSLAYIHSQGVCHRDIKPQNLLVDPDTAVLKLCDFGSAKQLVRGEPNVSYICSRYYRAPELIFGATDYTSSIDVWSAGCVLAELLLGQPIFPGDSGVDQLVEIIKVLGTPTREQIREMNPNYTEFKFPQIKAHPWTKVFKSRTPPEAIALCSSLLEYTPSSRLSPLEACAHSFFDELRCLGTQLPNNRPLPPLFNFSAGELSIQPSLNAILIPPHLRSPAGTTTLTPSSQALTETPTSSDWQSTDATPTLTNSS
T33 sequence (O43353 whole entry): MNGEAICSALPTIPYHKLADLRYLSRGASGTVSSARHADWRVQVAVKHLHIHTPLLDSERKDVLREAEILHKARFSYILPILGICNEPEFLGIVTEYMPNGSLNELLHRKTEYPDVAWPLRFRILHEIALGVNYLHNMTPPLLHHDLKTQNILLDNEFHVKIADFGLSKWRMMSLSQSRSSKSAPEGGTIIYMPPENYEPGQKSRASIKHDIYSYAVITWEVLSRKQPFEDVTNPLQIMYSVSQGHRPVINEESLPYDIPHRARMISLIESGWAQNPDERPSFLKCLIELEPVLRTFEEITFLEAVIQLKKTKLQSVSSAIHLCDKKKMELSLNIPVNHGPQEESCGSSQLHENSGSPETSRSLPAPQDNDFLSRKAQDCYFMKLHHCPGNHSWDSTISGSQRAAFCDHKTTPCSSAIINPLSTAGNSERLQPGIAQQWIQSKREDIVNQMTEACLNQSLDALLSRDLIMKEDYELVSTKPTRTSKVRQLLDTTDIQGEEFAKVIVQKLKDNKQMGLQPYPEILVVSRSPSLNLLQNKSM
T2 sequence (P30530 26-894): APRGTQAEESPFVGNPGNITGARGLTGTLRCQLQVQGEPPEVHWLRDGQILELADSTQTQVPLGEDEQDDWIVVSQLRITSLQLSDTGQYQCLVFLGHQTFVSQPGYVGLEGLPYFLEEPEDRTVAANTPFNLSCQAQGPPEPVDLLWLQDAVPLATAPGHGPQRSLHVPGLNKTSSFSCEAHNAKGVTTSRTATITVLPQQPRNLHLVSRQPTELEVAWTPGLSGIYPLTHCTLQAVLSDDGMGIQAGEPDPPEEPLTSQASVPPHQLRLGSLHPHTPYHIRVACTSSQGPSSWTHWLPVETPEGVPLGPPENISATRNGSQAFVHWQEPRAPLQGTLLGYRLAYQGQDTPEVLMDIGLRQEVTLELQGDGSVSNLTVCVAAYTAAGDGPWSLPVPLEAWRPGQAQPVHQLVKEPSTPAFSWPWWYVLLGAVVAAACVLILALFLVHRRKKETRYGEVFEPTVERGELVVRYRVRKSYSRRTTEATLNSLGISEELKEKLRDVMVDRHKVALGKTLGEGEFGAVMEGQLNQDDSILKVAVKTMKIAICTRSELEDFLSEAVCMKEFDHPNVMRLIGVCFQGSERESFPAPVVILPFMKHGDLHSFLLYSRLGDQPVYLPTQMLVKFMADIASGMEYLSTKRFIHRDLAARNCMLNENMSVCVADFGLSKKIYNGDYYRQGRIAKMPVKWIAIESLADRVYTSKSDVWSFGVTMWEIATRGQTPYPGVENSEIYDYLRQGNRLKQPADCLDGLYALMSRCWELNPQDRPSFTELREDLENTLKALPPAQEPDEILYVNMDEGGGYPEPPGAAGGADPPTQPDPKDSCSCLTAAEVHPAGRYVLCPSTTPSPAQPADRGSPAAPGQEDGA
T21 sequence (P51955 whole entry): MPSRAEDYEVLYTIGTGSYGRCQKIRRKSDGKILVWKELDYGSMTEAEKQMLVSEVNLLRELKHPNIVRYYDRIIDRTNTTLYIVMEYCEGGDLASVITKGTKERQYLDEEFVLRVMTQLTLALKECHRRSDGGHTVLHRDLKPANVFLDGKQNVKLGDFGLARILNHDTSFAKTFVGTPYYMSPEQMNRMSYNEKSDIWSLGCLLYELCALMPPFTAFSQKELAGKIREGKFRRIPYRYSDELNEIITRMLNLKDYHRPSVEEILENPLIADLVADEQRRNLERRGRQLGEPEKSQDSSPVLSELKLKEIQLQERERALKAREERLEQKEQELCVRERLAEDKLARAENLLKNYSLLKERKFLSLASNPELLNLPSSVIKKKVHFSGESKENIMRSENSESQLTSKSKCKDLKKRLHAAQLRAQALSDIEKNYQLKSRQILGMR
T13 sequence (P36888 27-993): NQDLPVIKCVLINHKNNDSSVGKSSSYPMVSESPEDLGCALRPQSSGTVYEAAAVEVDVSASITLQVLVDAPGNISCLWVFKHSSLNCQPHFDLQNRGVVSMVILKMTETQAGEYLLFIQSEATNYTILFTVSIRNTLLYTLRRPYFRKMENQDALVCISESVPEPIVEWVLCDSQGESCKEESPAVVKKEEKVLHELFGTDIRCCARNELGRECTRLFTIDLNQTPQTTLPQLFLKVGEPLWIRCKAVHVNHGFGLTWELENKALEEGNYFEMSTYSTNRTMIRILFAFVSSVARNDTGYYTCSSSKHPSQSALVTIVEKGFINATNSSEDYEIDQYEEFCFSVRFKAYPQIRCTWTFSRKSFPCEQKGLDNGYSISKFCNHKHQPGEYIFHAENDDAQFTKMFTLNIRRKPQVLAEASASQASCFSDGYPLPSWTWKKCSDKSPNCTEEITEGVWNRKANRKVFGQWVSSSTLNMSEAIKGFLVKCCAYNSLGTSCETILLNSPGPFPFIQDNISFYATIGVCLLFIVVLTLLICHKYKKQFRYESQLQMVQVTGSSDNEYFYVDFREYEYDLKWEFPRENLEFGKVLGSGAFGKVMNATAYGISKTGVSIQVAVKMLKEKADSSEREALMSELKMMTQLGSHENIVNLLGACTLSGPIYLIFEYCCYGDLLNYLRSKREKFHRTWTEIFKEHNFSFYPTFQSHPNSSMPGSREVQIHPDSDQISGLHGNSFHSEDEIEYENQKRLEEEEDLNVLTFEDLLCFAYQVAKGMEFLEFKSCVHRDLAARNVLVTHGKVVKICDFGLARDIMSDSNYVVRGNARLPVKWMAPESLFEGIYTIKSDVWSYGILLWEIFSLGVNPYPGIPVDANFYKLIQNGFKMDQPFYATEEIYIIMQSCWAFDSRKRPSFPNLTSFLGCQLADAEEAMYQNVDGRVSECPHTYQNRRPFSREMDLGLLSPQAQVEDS
T11 sequence (P28482 whole entry): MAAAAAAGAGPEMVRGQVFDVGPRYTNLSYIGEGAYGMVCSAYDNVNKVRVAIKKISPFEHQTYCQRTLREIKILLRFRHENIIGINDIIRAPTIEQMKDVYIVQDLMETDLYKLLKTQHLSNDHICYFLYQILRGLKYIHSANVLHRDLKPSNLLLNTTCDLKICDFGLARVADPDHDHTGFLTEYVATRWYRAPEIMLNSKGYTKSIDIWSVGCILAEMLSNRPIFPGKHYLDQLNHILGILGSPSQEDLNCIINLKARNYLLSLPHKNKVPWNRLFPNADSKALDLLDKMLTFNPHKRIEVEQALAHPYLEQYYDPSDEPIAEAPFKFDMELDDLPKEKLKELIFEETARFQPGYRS
T19 sequence (P10721 26-976): as the sequence (P10721 26-976 D816V) above, with V791D counted along it
T22 sequence (Q15759 whole entry): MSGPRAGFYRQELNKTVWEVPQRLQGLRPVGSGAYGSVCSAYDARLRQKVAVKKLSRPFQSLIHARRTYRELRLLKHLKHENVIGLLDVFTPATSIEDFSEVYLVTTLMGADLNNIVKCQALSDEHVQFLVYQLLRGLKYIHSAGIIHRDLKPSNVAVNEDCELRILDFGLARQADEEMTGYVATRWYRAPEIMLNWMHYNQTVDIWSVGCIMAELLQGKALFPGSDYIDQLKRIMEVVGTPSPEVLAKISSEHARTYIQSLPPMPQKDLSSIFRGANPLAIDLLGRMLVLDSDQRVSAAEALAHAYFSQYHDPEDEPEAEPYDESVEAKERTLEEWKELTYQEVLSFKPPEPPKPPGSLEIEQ

Cc1ccc(-n2cc(COc3cccc4cnc(Nc5cccc(Cl)c5)nc34)nn2)c([N+](=O)[O-])c1 [DB18]
remaining binding at 1 µM [1]: 97% | remaining binding at 1 µM [2]: 87% | remaining binding at 1 µM [3]: 100% | remaining binding at 1 µM [4]: 100% | remaining binding at 1 µM [5]: 100% | remaining binding at 1 µM [6]: 93% | remaining binding at 1 µM [7]: 100% | remaining binding at 1 µM [8]: 90% | remaining binding at 1 µM [9]: 100% | remaining binding at 1 µM [10]: 97% | remaining binding at 1 µM [11]: 100% | remaining binding at 1 µM [12]: 96% | remaining binding at 1 µM [13]: 84% | remaining binding at 1 µM [14]: 100% | remaining binding at 1 µM [15]: 89% | remaining binding at 1 µM [16]: 100% | remaining binding at 1 µM [17]: 100% | remaining binding at 1 µM [18]: 100% | remaining binding at 1 µM [19]: 97% | remaining binding at 1 µM [20]: 95% | remaining binding at 1 µM [21]: 100% | remaining binding at 1 µM [22]: 100% | remaining binding at 1 µM [23]: 100% | remaining binding at 1 µM [24]: 92% | remaining binding at 1 µM [25]: 100% | remaining binding at 1 µM [26]: 100% | remaining binding at 1 µM [27]: 100% | remaining binding at 1 µM [28]: 96% | remaining binding at 1 µM [29]: 100% | remaining binding at 1 µM [30]: 100% | remaining binding at 1 µM [31]: 100% | remaining binding at 1 µM [32]: 97% | remaining binding at 1 µM [33]: 98% | remaining binding at 1 µM [34]: 100% | remaining binding at 1 µM [35]: 100% | remaining binding at 1 µM [36]: 87% | remaining binding at 1 µM [37]: 100% | remaining binding at 1 µM [38]: 100% | remaining binding at 1 µM [39]: 99% | remaining binding at 1 µM [40]: 100% | remaining binding at 1 µM [41]: 100% | IC50 [42]: 4 µM
